Test results: article PMC10974533, “Cationicity Enhancement on the Hydrophilic Face of Ctriporin Significantly Reduces Its Hemolytic Activity and Improves the Antimicrobial Activity against Antibiotic-Resistant ESKAPE Pathogens” (Toxins, 2024)
Where a SMILES comes first, the peptide text is derived from it.

Experiments:
S. capitis 3255 = experiment: MIC, broth dilution, clinical isolate; type: cell-based; settings: MRSC clinical isolate
Procedure: (§1) The standard strains, including S. aureus ATCC29213 and ATCC25923, E. faecalis ATCC29212, E. coli ATCC25922 and ATCC35218, A. baumannii ATCC19606, K. pneumoniae ATCC700603, and P. aeruginosa ATCC27853, were purchased from the China Center of Type Culture Collection (CCTCC). The clinical strains of the ESKAPE pathogens were isolated from the affiliated hospitals of Hubei University of Medicine. All of them were stored at −80 °C before use. The drug sensitivities of the clinical strains were determined by the Kirby–Bauer test.
(§2) The MICs were determined using the broth dilution method according to the guidelines of the Clinical and Laboratory Standards Institute (CLSI), as described in the previous studies. Briefly, the bacterial cells were incubated in Mueller–Hinton broth (MHB, Oxoid, Basingstoke, UK) at 37 °C and 150 rpm to the mid-growth phase and diluted to achieve a final concentration of 5 × 10^5 colony-forming units per milliliter (CFU/mL). Then, the cells were mixed with each peptide in different concentrations (1, 2, 4, 8, 16, 32, and 64 μg/mL). […] All experiments were repeated at least three times.

S. aureus 891 = experiment: MIC, broth dilution, clinical isolate; type: cell-based; settings: MRSA clinical isolate
Procedure: as §1, §2

A. baumannii 19618 = experiment: MIC, broth dilution, clinical isolate; type: cell-based; settings: CRE/MDR clinical isolate
Procedure: as §1, §2

E. coli 2678 = experiment: MIC, broth dilution, clinical isolate; type: cell-based; settings: ESBL clinical isolate
Procedure: as §1, §2

E. faecium 898 = experiment: MIC, broth dilution, clinical isolate; type: cell-based; settings: MDR clinical isolate
Procedure: as §1, §2

A. baumannii 19462 = experiment: MIC, broth dilution, clinical isolate; type: cell-based; settings: CRE/MDR clinical isolate
Procedure: as §1, §2

E. coli 2687 = experiment: MIC, broth dilution, clinical isolate; type: cell-based; settings: ESBL clinical isolate
Procedure: as §1, §2

A. baumannii 19295 = experiment: MIC, broth dilution, clinical isolate; type: cell-based; settings: CRE/MDR clinical isolate
Procedure: as §1, §2

P. aeruginosa 9014 = experiment: MIC, broth dilution, clinical isolate; type: cell-based; settings: CRE/MDR clinical isolate
Procedure: as §1, §2

K. pneumoniae 9126 = experiment: MIC, broth dilution, clinical isolate; type: cell-based; settings: CRE clinical isolate
Procedure: as §1, §2

S. epidermidis 9092 = experiment: MIC, broth dilution, clinical isolate; type: cell-based; settings: MRSE clinical isolate
Procedure: as §1, §2

S. epidermidis 6943 = experiment: MIC, broth dilution, clinical isolate; type: cell-based; settings: MRSE clinical isolate
Procedure: as §1, §2

S. aureus 9124 = experiment: MIC, broth dilution, clinical isolate; type: cell-based; settings: MRSA clinical isolate
Procedure: as §1, §2

E. faecium ATCC29212 = experiment: MIC, broth dilution, standard strain; type: cell-based; settings: broth dilution (CLSI), MHB, 37 °C, 16–20 h
Outline: (§3)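 Broth dilution per CLSI guidelines: mid-log cultures grown in Mueller–Hinton broth at 37 °C, 150 rpm, diluted to 5 × 10^5 CFU/mL final and exposed to peptide at 1–64 μg/mL in twofold steps. Experiments were repeated at least three times.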

E. coli ATCC25922 = experiment: MIC, broth dilution, standard strain; type: cell-based; settings: broth dilution (CLSI), MHB, 37 °C, 16–20 h
Outline: as §3

A. baumannii ATCC19606 = experiment: MIC, broth dilution, standard strain; type: cell-based; settings: broth dilution (CLSI), MHB, 37 °C, 16–20 h
Outline: as §3

S. aureus ATCC29213 = experiment: MIC, broth dilution, standard strain; type: cell-based; settings: broth dilution (CLSI), MHB, 37 °C, 16–20 h
Outline: as §3

E. coli ATCC35218 = experiment: MIC, broth dilution, standard strain; type: cell-based; settings: broth dilution (CLSI), MHB, 37 °C, 16–20 h
Outline: as §3

K. pneumoniae ATCC700603 = experiment: MIC, broth dilution, standard strain; type: cell-based; settings: broth dilution (CLSI), MHB, 37 °C, 16–20 h
Outline: as §3

P. aeruginosa ATCC27853 = experiment: MIC, broth dilution, standard strain; type: cell-based; settings: broth dilution (CLSI), MHB, 37 °C, 16–20 h
Outline: as §3

S. aureus ATCC25923 = experiment: MIC, broth dilution, standard strain; type: cell-based; settings: broth dilution (CLSI), MHB, 37 °C, 16–20 h
Outline: as §3

[1] = system: carbapenem-resistant (CRE) A. baumannii; settings: cited from earlier work
Text: A wealth of CαAMPs have been identified from the venom glands of various scorpion species. Among these peptides, the members of short cationic AMP family are a group of cationic α-helical peptides with 17 to 19 residues, including Ctriporin [17], Mucroporin [18], Imcroporin [19], Stigmurin [20], TsAP-1 and TsAP-2 [21], AamAP1 and AamAP2 [22], and BmKb1 and BmKb2 [23]. Some peptides from this family were reported to show antimicrobial activity against methicillin-resistant S. aureus. We identified Lausporin-2 from the venom of Liocheles au ...

[2] = broth dilution (CLSI), MHB, 5 × 10^5 CFU/mL, 37 °C, 16–20 h, OD630
[3] = 5 × 10^5 CFU/mL, OD630, repeated at least three times

Compound: CC[C@H](C)[C@H](NC(=O)[C@H](C)NC(=O)CNC(=O)[C@@H]1CCCN1C(=O)[C@@H](NC(=O)[C@H](CC(C)C)NC(=O)CNC(=O)[C@H](Cc1c[nH]c2ccccc12)NC(=O)[C@H](CC(C)C)NC(=O)[C@@H](N)Cc1ccccc1)[C@@H](C)CC)C(=O)N[C@@H](CO)C(=O)N[C@@H](C)C(=O)N[C@H](C(=O)N[C@H](C(=O)N[C@@H](CO)C(=O)N[C@@H](CC(C)C)C(=O)N[C@H](C(=O)N[C@@H](CCCCN)C(=O)N[C@@H](CCCCN)C(N)=O)[C@@H](C)CC)[C@@H](C)O)C(C)C [Ctriporin] (H-FLWGLIPGAISAVTSLIKK-NH2; N-terminus assumed)
- MICs (S. capitis 3255; [2]): 8 µg/mL
- MICs (S. capitis 3255; value in parentheses): 4.0 µM
- MICs (S. aureus 891; [2]): 16 µg/mL
- MICs (S. aureus 891; value in parentheses): 8.0 µM
- MICs (A. baumannii 19618; [2]): 32 µg/mL
- MICs (A. baumannii 19618; value in parentheses): 15.9 µM
- MICs (E. coli 2678; [2]): 64 µg/mL
- MICs (E. coli 2678; value in parentheses): 31.8 µM
- MICs (E. faecium 898; [2]): 16 µg/mL
- MICs (E. faecium 898; value in parentheses): 8.0 µM
- MICs (A. baumannii 19462; [2]): 16 µg/mL
- MICs (A. baumannii 19462; value in parentheses): 8.0 µM
- MICs (E. coli 2687; [2]): > 64 µg/mL
- MICs (E. coli 2687; value in parentheses): > 31.8 µM
- MICs (A. baumannii 19295; [2]): 32 µg/mL
- MICs (A. baumannii 19295; value in parentheses): 15.9 µM
- MICs (P. aeruginosa 9014; [2]): > 64 µg/mL
- MICs (P. aeruginosa 9014; value in parentheses): > 31.8 µM
- MICs (K. pneumoniae 9126; [2]): > 64 µg/mL
- MICs (K. pneumoniae 9126; value in parentheses): > 31.8 µM
- MICs (S. epidermidis 9092; [2]): 8 µg/mL
- MICs (S. epidermidis 9092; value in parentheses): 4.0 µM
- MICs (S. epidermidis 6943; [2]): 8 µg/mL
- MICs (S. epidermidis 6943; value in parentheses): 4.0 µM
- MICs (S. aureus 9124; [2]): 8 µg/mL
- MICs (S. aureus 9124; value in parentheses): 4.0 µM
- MICs (E. faecium ATCC29212; [3]): 64 µg/mL
- MICs (E. faecium ATCC29212; value in parentheses): 31.8 µM
- MICs (E. coli ATCC25922; [3]): 64 µg/mL
- MICs (E. coli ATCC25922; value in parentheses): 31.8 µM
- MICs (A. baumannii ATCC19606; [3]): 16 µg/mL
- MICs (A. baumannii ATCC19606; value in parentheses): 8.0 µM
- MICs (S. aureus ATCC29213; [3]): 16 µg/mL
- MICs (S. aureus ATCC29213; value in parentheses): 8.0 µM
- MICs (E. coli ATCC35218; [3]): > 64 µg/mL
- MICs (E. coli ATCC35218; value in parentheses): > 31.8 µM
- MICs (K. pneumoniae ATCC700603; [3]): > 64 µg/mL
- MICs (K. pneumoniae ATCC700603; value in parentheses): > 31.8 µM
- MICs (P. aeruginosa ATCC27853; [3]): > 64 µg/mL
- MICs (P. aeruginosa ATCC27853; value in parentheses): > 31.8 µM
- MICs (S. aureus ATCC25923; [3]): 32 µg/mL
- MICs (S. aureus ATCC25923; value in parentheses): 15.9 µM
- antimicrobial activity against carbapenem-resistant (CRE) A. baumannii [1]: moderate antimicrobial activity
